# Data from patent US6589957B2, “Compounds and methods of use for treatment of neurogenic inflammation” (Harbor Branch Oceanographic Institution, Inc., priority 1998, dated 2003).
# Test system: resiniferatoxin (RTX)-induced mouse ear edema
# Assay: Inhibition of resiniferatoxin-induced inflammation (edema) of the mouse ear
# Assay type: in vivo
# Conditions: 50 μg/ear topically in acetone together with RTX 0.1 μg/ear, 30-minute incubation, relative to control group edema
# Procedure: Inhibition of Resiniferatoxin-Induced Inflammation (Edema) of the Mouse Ear
# Induction of mouse ear edema can be conducted by known methods (Inoue, 1-f., N. Nagata, Y. Koshffiara [1993]). Compounds to be tested for anti-neurogenic inflammatory activity are topically applied in acetone to the ears of mice in a solution that includes the edema-causing irritant resiniferatoxin (RTX). RTX alone (0.1 μg/ear) or in combination with various dilutions of test compound are applied to both sides of the left ears (5 mice per treatment group) and acetone is applied to all right ears. After a 30-minute incubation, the mice are sacrificed, the ears removed, and bores taken and weighed. Edema is measured by subtracting the weight of the right ear (acetone control) from the weight of the left ear (treated). Results are recorded as % decrease (inhibition) or % increase (potentiation) in edema relative to the control group edema.
# Bis-heterocycle compounds of the subject invention, e.g., the bis-indole compounds, show significant anti-inflammatory properties.
row,SMILES,inhibition of RTX-induced edema
1,CC(c1cnc(N)[nH]1)c1nc(C(=O)c2c[nH]c3cc(O)ccc23)[nH]c1-c1c[nH]c2cc(Br)ccc12 (stereo not drawn) [topsentin e],approximately 88.4%
2,CC1c2[nH]c(N)nc2C2(O)CC1c1c(-c3cnc(-c4c[nH]c5cc(Br)ccc45)c(=O)[nH]3)c[nH]c1C2=O (stereo not drawn) [dragmacidin f],approximately 69.9%
3,Nc1ncc(C(Cc2nc(C(=O)c3c[nH]c4cc(O)ccc34)[nH]c2-c2c[nH]c3cc(Br)ccc23)C(=O)O)[nH]1 (stereo not drawn) [topsentin d],approximately 96.9%
